Reference: patent US8148367B2 (Takeda Pharmaceutical Company Limited, priority 2008, dated 2012)

Target: T1, Recombinant human renin (Homo sapiens, UniProt P00797)
T1 construct: isolate the active form (residues 67-406); made in house; host or cells: FreeStyle 293-F cells, transient expression of pcDNA3.1(+)/hREN
T1 sequence (P00797 67-406): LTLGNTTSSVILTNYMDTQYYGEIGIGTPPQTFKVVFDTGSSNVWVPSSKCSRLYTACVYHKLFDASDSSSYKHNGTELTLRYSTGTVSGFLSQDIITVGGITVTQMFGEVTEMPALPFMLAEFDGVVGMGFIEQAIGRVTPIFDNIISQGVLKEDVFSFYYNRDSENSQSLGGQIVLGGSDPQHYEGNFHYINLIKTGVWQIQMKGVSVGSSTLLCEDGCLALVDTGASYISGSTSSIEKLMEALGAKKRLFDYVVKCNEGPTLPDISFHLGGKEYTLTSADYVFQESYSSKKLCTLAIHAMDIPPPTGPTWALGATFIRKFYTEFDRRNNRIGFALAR
Experiment: In vitro enzymatic activity assay of renin inhibitors (fluorescence, QXL520/HiLyteFluo488 peptide substrate)
Format: biochemical
Settings: recombinant human renin 3 nM, 1 μM substrate, pre-incubated 10 minutes at 37° C., incubation one hour, pH 7.4, 5% DMSO; read-out: IC50 of Exemplified Compounds Against Renin

Row | IC50 [nM] | SMILES
1 | > 1000 | C=CCn1c(C(=O)N2CCNCC2)c(-c2ccccc2)n(C2CCCCC2)c1=O [Example 62, 1-Allyl-3-cyclohexyl-4-phenyl-5-(piperazine-1-carbonyl)-1H-imidazol-2(3H)-one]
2 | 500 to 1000 | Cc1ccccc1-n1c(-c2ccccc2)c(C(=O)N2CCNCC2)n(CCNS(=O)(=O)C(C)C)c1=O [Example 206, N-(2-(2-Oxo-4-phenyl-5-(piperazine-1-carbonyl)-3-o-tolyl-2,3-dihydro-1H-imidazol-1-yl)ethyl)propane-2-sulfonamide]
3 | 100 to 500 | O=C(c1c(-c2ccccc2)n(C2CCCCC2)c(=O)n1Cc1cc(-c2cn[nH]c2)nc(-c2cn[nH]c2)c1)N1CCNCC1 [Example 91, 1-Cyclohexyl-3-((2,6-di(1H-pyrazol-4-yl)pyridin-4-yl)methyl)-5-phenyl-4-(piperazine-1-carbonyl)-1H-imidazol-2(3H)-one]
4 | > 1000 | CC(C)CC(=O)NCCn1c(C(=O)N2CCNCC2)c(-c2ccccc2)n(-c2cccc(N3CCOCC3)c2)c1=O [Example 178, 3-Methyl-N-(2-(3-(3-morpholinophenyl)-2-oxo-4-phenyl-5-(piperazine-1-carbonyl)-2,3-dihydro-1H-imidazol-1-yl)ethyl)butanamide]
5 | 100 to 500 | O=C(c1c(-c2ccccc2)n(-c2ccccc2)c(=O)n1Cc1cccc(F)c1)N1CCNCC1 [Example 51, 1-(3-Fluorobenzyl)-3,4-diphenyl-5-(piperazine-1-carbonyl)-1H-imidazol-2(3H)-one]
6 | > 1000 | O=C(c1c(-c2ccccc2)n(-c2ccccc2)c(=O)n1CC1CCOCC1)N1CCNCC1 [Example 53, 1,5-Diphenyl-4-(piperazine-1-carbonyl)-3-((tetrahydro-2H-pyran-4-yl)methyl)-1H-imidazol-2(3H)-one]
7 | > 1000 | COc1cccc(Cn2c(C(=O)N3CCNCC3)c(-c3ccccc3)n(C3CCCN(C(C)=O)C3)c2=O)c1 (stereo not drawn) [Example 92, 1-(1-Acetylpiperidin-3-yl)-3-(3-methoxybenzyl)-5-phenyl-4-(piperazine-1 carbonyl)-1H-imidazol-2(3H)-one]
8 | 500 to 1000 | O=C(c1[nH]c(=O)n(C2CCCCC2)c1-c1ccccc1)N1CCNCC1 [Example 29, 1-Cyclohexyl-5-phenyl-4-(piperazine-1-carbonyl)-1H-imidazol-2(3H)-one]
9 | 100 to 500 | O=C(Nc1ccccc1-n1c(-c2ccccc2)c(C(=O)N2CCNC[C@H]2Cc2ccccc2)[nH]c1=O)C1CC1 [Example 120, (R)—N-(2-(4-(2-Benzylpiperazine-1-carbonyl)-2-oxo-5-phenyl-2,3-dihydro-1H-imidazol-1-yl)phenyl)cyclopropanecarboxamide]
10 | > 1000 | CC(C)CN(C)C(=O)c1cccc(Cn2c(C(=O)N3CCNCC3)c(-c3ccccc3)n(-c3cccc(N4CCOCC4)c3)c2=O)c1 [Example 78, N-isobutyl-N-methyl-3-((3-(3-morpholinophenyl)-2-oxo-4-phenyl-5-(piperazine-1-carbonyl)-2,3-dihydro-1H-imidazol-1-yl)methyl)benzamide]
11 | < 100 | O=C(c1c(-c2ccccc2)n(-c2cccc(N3CCOCC3)c2)c(=O)n1CCCNS(=O)(=O)c1ccccc1Cl)N1CCNCC1 [Example 194, 2-Chloro-N-(3-(3-(3-morpholinophenyl)-2-oxo-4-phenyl-5-(piperazine-1-carbonyl)-2,3-dihydro-1H-imidazol-1-yl)propyl)benzenesulfonamide]
12 | 100 to 500 | Cc1ccccc1-n1c(-c2ccccc2)c(C(=O)N2CCNCC2)n(CCCNS(=O)(=O)c2ccccc2)c1=O [Example 162, N-(3-(2-oxo-4-Phenyl-5-(piperazine-1-carbonyl)-3-o-tolyl-2,3-dihydro-1H-imidazol-1-yl)propyl)benzenesulfonamide]
13 | < 100 | CC(=O)Nc1ccccc1-n1c(-c2ccccc2)c(C(=O)N2CCNC[C@H]2Cc2ccccc2)[nH]c1=O [Example 122, (R)—N-(2-(4-(2-Benzylpiperazine-1-carbonyl)-2-oxo-5-phenyl-2,3-dihydro-1H-imidazol-1-yl)phenyl)acetamide]
14 | > 1000 | O=C(c1c(-c2ccccc2)n([C@@H]2CCCC[C@H]2O)c(=O)n1Cc1ccccc1)N1CCNCC1 [Example 105, 1-Benzyl-3-((1R,2R)-2-hydroxycyclohexyl)-4-phenyl-5-(piperazine-1-carbonyl)-1H-imidazol-2(3H)-one]
15 | 100 to 500 | O=C(c1c(-c2ccccc2)n(-c2cccc(N3CCOCC3)c2)c(=O)n1Cc1cccc(OCCOc2ccccc2)c1)N1CCNCC1 [Example 191, 1-(3-Morpholinophenyl)-3-(3-(2-phenoxyethoxy)benzyl)-5-phenyl-4-(piperazine-1-carbonyl)-1H-imidazol-2(3H)-one]
16 | 500 to 1000 | O=C(NCCCn1c(C(=O)N2CCNCC2)c(-c2ccccc2)n(-c2cccc(N3CCOCC3)c2)c1=O)Nc1ccccc1 [Example 200, 1-(3-(3-(3-Morpholinophenyl)-2-oxo-4-phenyl-5-(piperazine-1-carbonyl)-2,3-dihydro-1H-imidazol-1-yl)propyl)-3-phenylurea]
17 | > 1000 | N#Cc1ccccc1Cn1c(C(=O)N2CCNCC2)c(-c2ccccc2)n(-c2ccccc2)c1=O [Example 85, 2-((2-Oxo-3,4-diphenyl-5-(piperazine-1-carbonyl)-2,3-dihydro-1H-imidazol-1-yl)methyl)benzonitrile]
18 | > 1000 | CC(C)CC(=O)NCCCn1c(C(=O)N2CCNCC2)c(-c2ccccc2)n(-c2cccc(N3CCOCC3)c2)c1=O [Example 176, 3-Methyl-N-(3-(3-(3-morpholinophenyl)-2-oxo-4-phenyl-5-(piperazine-1-carbonyl)-2,3-dihydro-1H-imidazol-1-yl)propyl)butanamide]
19 | > 1000 | O=C(c1[nH]c(=O)n(-c2nc3ccccc3[nH]2)c1-c1ccccc1)N1CCNCC1 [Example 44, 1-(1H-benzo[d]imidazol-2-yl)-5-phenyl-4-(piperazine-1-carbonyl)-1H-imidazol-2(3H)-one]
20 | 100 to 500 | O=C(c1c(-c2ccccc2)n(C2CCCCC2)c(=O)n1Cc1cccc(-n2cccc2)c1)N1CCNCC1 [Example 72, 1-(3-(1H-Pyrrol-1-yl)benzyl)-3-cyclohexyl-4-phenyl-5-(piperazine-1-carbonyl)-1H-imidazol-2(3H)-one]
21 | < 100 | O=C(c1[nH]c(=O)n(CC2(O)CCCCC2)c1-c1ccccc1)N1CCNC[C@H]1Cc1ccccc1 [Example 130, (R)-4-(2-Benzylpiperazine-1-carbonyl)-1-((1-hydroxycyclohexyl)methyl)-5-phenyl-1H-imidazol-2(3H)-one]
22 | > 1000 | COc1ccccc1C(=O)NCCCn1c(C(=O)N2CCNCC2)c(-c2ccccc2)n(-c2ccccc2C)c1=O [Example 244, 2-Methoxy-N-(3-(2-oxo-4-phenyl-5-(piperazine-1-carbonyl)-3-o-tolyl-2,3-dihydro-1H-imidazol-1-yl)propyl)benzamide]
23 | < 100 | COc1cccc(-n2c(-c3ccccc3)c(C(=O)N3CCNC[C@H]3Cc3ccccc3)[nH]c2=O)c1OC [Example 112, (R)-4-(2-Benzylpiperazine-1-carbonyl)-1-(2,3-dimethoxyphenyl)-5-phenyl-1H-imidazol-2(3H)-one]
24 | > 1000 | Cn1c(C(=O)N2CCNCC2)c(-c2ccccc2)n(-c2ccccc2)c1=O [Example 54, 1-Methyl-3,4-diphenyl-5-(piperazine-1-carbonyl)-1H-imidazol-2(3H)-one]
